# Test results: patent US20140329863A1 (priority 2011, published 2014)
# Where two headings read alike, the source gives them in different places. Marks after values point to notes of the source that are not given here.
# Experiments:
# [1] = tested on: PrP^Sc in dividing ScN2a-cl3 cells; assay type: cell-based, mouse; parameters: Dividing ELISA pEC50 (μM) 1st Expt. / Dividing ELISA pEC50 (μM) 2nd Expt. / Dividing ELISA pEC50 (μM) 3rd Expt. / Dividing ELISA pEC50 (μM) Mean: unit not given here
# N2a-cl3 cells [2] = tested on: N2a-cl3 cells
# N2a-cl3 cells [3] = experiment: cells; conditions: Mus musculus
# [4] = tested on: PrP^Sc in nondividing ScN2a-cl3 cells; assay type: cell-based, mouse
# [5] = Table 29, 2-AMT analogs tested for potency, usually n = 3 or more
# [6] = N2a-cl3, read-out: Dividing Calcein EC50 (μM) Mean (n = 3)
# [7] = read-out: Non-Dividing ELISA EC50 (μM) Mean (n = 3), ScN2a-c13 non-dividing cells, mean n = 3
# [8] = ScN2a-cl3 dividing cells, 1st determination
# [9] = ScN2a-cl3 dividing cells, 2nd determination
# [10] = ScN2a-cl3 dividing cells, 3rd determination
# [11] = ScN2a-cl3 dividing cells, mean of three determinations
# [12] = read-out: Dividing ELISA EC50 (μM) 1st Expt., ScN2a-cl3 dividing cells, 1st determination
# [13] = read-out: Dividing ELISA EC50 (μM) 2nd Expt., ScN2a-cl3 dividing cells, 2nd determination
# [14] = read-out: Dividing ELISA EC50 (μM) 3rd Expt., ScN2a-cl3 dividing cells, 3rd determination
# [15] = read-out: Dividing ELISA EC50 (μM) Mean, ScN2a-cl3 dividing cells, mean of three determinations
Compound,melting point,EC50 ([1]; AMT analogs tested for potency),EC50 (N2a-cl3 cells [3]; [6]),"EC50 [4, 7]","Dividing ELISA pEC50 (μM) 1st Expt. [1, 8]","Dividing ELISA pEC50 (μM) 2nd Expt. [1, 9]","Dividing ELISA pEC50 (μM) 3rd Expt. [1, 10]","Dividing ELISA pEC50 (μM) Mean [1, 11]","EC50 [1, 12]","EC50 [1, 13]","EC50 [1, 14]","EC50 [1, 15]",also measured
"Cc1ccc(Nc2nc(-c3ccc(OC(F)(F)F)cc3)cs2)nc1 [IND26, (5-Methyl-pyridin-2-yl)-[4-(4-trifluoromethoxy-phenyl)-thiazol-2-yl]-amine]",205 to 207 °C,> 10 µM,,,,,,,,,,,"EC50 [1, 5]: > 10 µM"
"Cc1ccc(Nc2nc(-c3cccc(C#N)c3)cs2)nc1 [IND38, 3-[2-(5-Methyl-pyridin-2-ylamino)-thiazol-4-yl]-benzonitrile]",268 to 272 °C,2.29 µM,,,,,,,,,,,"EC50 [1, 5]: 2.29 µM"
"Cc1ccnc(Nc2nc(-c3ccc4c(c3)OCCO4)cs2)c1 [IND57, [4-(2,3-Dihydro-benzo[1,4]dioxin-6-yl)-thiazol-2-yl]-(4-methyl-pyridin-2-yl)-amine]",230 to 240 °C,> 10 µM,,,,,,,,,,,"EC50 [1, 5]: > 10 µM"
"COc1ccc(-c2csc(Nc3ccc(C)cn3)n2)c(OC)c1 [IND74, [4-(2,4-Dimethoxy-phenyl)-thiazol-2-yl]-(5-methyl-pyridin-2-yl)-amine]",157 to 158 °C,3.13 µM,,,,,,,,,,,"EC50 [1, 5]: 3.13 µM"
"Cc1ccnc(Nc2nc(-c3ccc(OC(F)(F)F)cc3)cs2)c1 [IND78, (4-Methyl-pyridin-2-yl)-[4-(4-trifluoromethoxy-phenyl)-thiazol-2-yl]-amine]",275 to 282 °C,> 32 µM,,,,,,,,,,,"EC50 [1, 5]: > 32 µM"
"COc1ccnc(Nc2nc(-c3ccncc3)cs2)c1 [IND111, (4-Methoxy-pyridin-2-yl)-(4-pyridin-4-yl-thiazol-2-yl)-amine]",190 to 192 °C,0.605 µM,,,,,,,,,,,
"COc1ccc(Nc2nc(-c3ccncc3)cs2)nc1 [IND119, (5-Methoxy-pyridin-2-yl)-(4-pyridin-4-yl-thiazol-2-yl)-amine]",213 to 214 °C,1.32 µM,,,,,,,,,,,
"COc1ccc(Nc2nc(-c3cc4ccccc4o3)cs2)nc1 [IND121, (4-Benzofuran-2-yl-thiazol-2-yl)-(5-methoxy-pyridin-2-yl)-amine]",185 to 186 °C,1.74 µM,,,,,,,,,,,
"COc1ccc(Nc2nc(-c3ccc(-c4ccccc4)cc3)cs2)nc1 [IND122, (4-Biphenyl-4-yl-thiazol-2-yl)-(5-methoxy-pyridin-2-yl)-amine]",212 to 213 °C,0.432 µM,,,,,,,,,,,
Cc1ccc2[nH]c3c(c2c1)CCCC3NCCCN(C)C (stereo not drawn) [IND-23308],,,,,,,,,,,,,"Dividing Cells V (cell viability percentages) (N2a-cl3 cells [2]): 30%; Effect on cell viability (EC50) (N2a-cl3 cells [2]): no effect on cell viability; Non-dividing Cells V (cell viability percentages) (N2a-cl3 cells [2]): 12%; EC50 (N2a-cl3 cells [3]; N2a-cl3, read-out: potency in cell viability, dividing cells): > 10 µM; EC50 (N2a-cl3 cells [3]; N2a-cl3, read-out: potency in cell viability, stationary-phase cells): > 10 µM; HTS % inhibition ([4]; HTS, nondividing cells): 70%; Inhibition of Baseline PrP^5c (%) Non-dividing Cells ELISA ([4]; SPC assay, nondividing cells): 94^d %; SPC % inhibition ([4]; SPC assays, nondividing cells): 94%; EC50 ([4]; read-out: EC50, PrP^Sc ELISA in stationary-phase (nondividing) cells): 7.5 µM; Inhibition of Baseline PrP^5c (%) Dividing Cells ELISA ([1]; SPC assay, dividing cells): 88%; EC50 ([1]; read-out: EC50, PrP^Sc ELISA in dividing ScN2a-c13 cells): 1.58 µM"
"COc1ccc(-c2csc(Nc3cccc(C)n3)n2)cc1OC [compound 4, [4-(3,4-dimethoxyphenyl)-thiazol-2-yl]-(6-methylpyridin-2-yl)-amine]",264 to 266 °C,,> 32 µM,> 32 µM,5.25,5.92,5.65,5.61,5.62 µM,1.19 µM,2.22 µM,3.01 µM,
"COc1ccc(-c2csc(Nc3ccccn3)n2)cc1OC [compound 6, [4-(3,4-dimethoxyphenyl)-thiazol-2-yl]pyridin-2-yl-amine]",211 to 214 °C,,> 32 µM,> 32 µM,,,,,11.8 µM,6.47 µM,6.38 µM,8.22 µM,
"COc1ccc(-c2csc(Nc3ccncc3)n2)cc1OC [compound 8, [4-(3,4-dimethoxyphenyl)-thiazol-2-yl]pyridin-4-yl-amine]",205 to 207 °C,,> 32 µM,> 32 µM,>4.5,4.60,4.57,,> 32 µM,25.2 µM,26.9 µM,> 28 µM,
"COc1ccc(-c2csc(Nc3ccccc3)n2)cc1OC [compound 9, [4-(3,4-dimethoxyphenyl)-thiazol-2-yl]-phenyl-amine]",170 to 174 °C,,> 32 µM,> 32 µM,5.13,5.14,5.35,5.21,7.4 µM,7.29 µM,4.45 µM,6.38 µM,
"COc1ccc(-c2csc(Nc3ncccn3)n2)cc1OC [compound 10, [4-(3,4-dimethoxyphenyl)-thiazol-2-yl]pyrimidin-2-yl-amine]",225 to 228 °C,,> 32 µM,> 32 µM,5.49,5.17,5.73,5.46,3.25 µM,6.71 µM,1.85 µM,3.94 µM,
"COc1ccc(-c2csc(Nc3cnccn3)n2)cc1OC [compound 11, [4-(3,4-dimethoxyphenyl)-thiazol-2-yl]pyrazin-2-yl-amine]",205 to 207 °C,,> 32 µM,> 32 µM,4.59,5.03,4.93,4.85,26 µM,9.23 µM,11.7 µM,15.6 µM,
"COc1ccc(-c2csc(Nc3ncccc3C)n2)cc1OC [compound 15, [4-(3,4-dimethoxyphenyl)-thiazol-2-yl]-(3-methylpyridin-2-yl)-amine]",264 to 266 °C,,> 32 µM,> 32 µM,4.89,5.68,5.17,5.25,13 µM,2.07 µM,6.81 µM,7.29 µM,
"COc1ccc(-c2csc(Nc3cc(C)ccn3)n2)cc1OC [compound 16, [4-(3,4-dimethoxyphenyl)-thiazol-2-yl]-(4-methylpyridin-2-yl)-amine]",211 to 213 °C,,> 32 µM,> 32 µM,5.95,6.13,5.95,6.01,1.13 µM,0.736 µM,1.13 µM,1 µM,
"COc1ccc(-c2csc(Nc3ccc4ccccc4c3)n2)cc1OC [compound 19, [4-(3,4-dimethoxyphenyl)-thiazol-2-yl]-naphthalen-2-yl-amine]",221 to 224 °C,,> 32 µM,> 32 µM,6.36,6.50,6.38,6.41,0.436 µM,0.317 µM,0.413 µM,0.389 µM,
"COc1ccc(-c2csc(Nc3cccc4ccccc34)n2)cc1OC [compound 20, [4-(3,4-dimethoxyphenyl)-thiazol-2-yl]-naphthalen-1-yl-amine]",244 to 246 °C,,> 32 µM,> 32 µM,>4.5,>4.5,>4.5,,> 32 µM,> 32 µM,> 32 µM,> 32 µM,
"COc1ccc(-c2csc(Nc3ccc(C)cn3)n2)cc1 [compound 21, [4-(4-Methoxyphenyl)-thiazol-2-yl]-(5-methylpyridin-2-yl)-amine]",246 to 248 °C,,> 32 µM,> 32 µM,5.30,5.72,5.66,5.56,5.02 µM,1.89 µM,2.19 µM,3.03 µM,
"COc1ccccc1-c1csc(Nc2ccc(C)cn2)n1 [compound 22, [4-(2-Methoxyphenyl)-thiazol-2-yl]-(5-methylpyridin-2-yl)-amine]",228 to 230 °C,,> 32 µM,> 32 µM,>4.5,4.58,4.52,,> 32 µM,26.1 µM,30.2 µM,> 29 µM,
